According to patent US12691094B2, “Use of Crassifolin A in preparation of drug for promoting mitophagy and treating neurodegenerative diseases” (JINAN UNIVERSITY, priority 2021, dated 2026):

Legend:
Hela-mt-Keima cells [1] = experiment: Detection of mitophagy in Hela-mt-Keima cells by confocal microscopy; type: cell-based; details: 10 μM JGX-1, 8 h
Description: (§1) The Keima fluorescent protein derived from anthozoan has a pH value-dependent bimodal excitation spectrum, that is, Keima at neutral pH and acidic pH can be excited to emit green fluorescence and red fluorescence under the excitation of light with a wavelength of 440 nm and 586 nm, respectively. Since mitochondria that undergo autophagy eventually enter acidic lysosomes, Keima with the mitochondrial localization (mitochondrial Keima, mt-Keima) can indicate the mitochondria that enter the lysosomes via the autophagic pathway. The specific procedure of this experiment is as follows:
Inoculation of Hela-mt-Keima cells into 12 laser confocal cell culture dishes at a density of 1×10^4, and then adding 1 mL of DMEM medium containing 10% (v/v) FBS; after 5 h, changing the solution, and dividing into a solvent control group (DMSO), a positive drug control group (10 μM FCCP), an experimental group 1 (10 μM JGX-1+10 μM FCCP) and an experimental group 2 (10 μM JGX-1), with 3 replicates in each group; incubating cells in a 5% (v/v) CO2 cell culture incubator at 37° C.; after 8 h, observing the changes in the excitation fluorescence signals of the 458 nm channel (indicating Keima at neutral pH) and the 561 nm channel (indicating Keima at acidic pH) under a laser confocal microscope, randomly selecting 3 fields of view to take photos, and then statistically plotting.

Hela-mt-Keima cells [2] = experiment: Flow cytometry of Hela-mt-Keima cells for screening a mitophagy drug; type: cell-based; details: 10 μM JGX-1+10 μM FCCP (FIG. 1 legend: JGX-1 10 μM)
Description: as §1, with “is, Keima can be” for “is, Keima at neutral pH and acidic pH can be”, “green fluorescence at neutral pH and acidic pH and red” for “green fluorescence and red”, “mitochondrial localization (mitocondrial Keima, mt-Keima)” for “mitochondrial localization (mitochondrial Keima, mt-Keima)”, “is as follow:” for “is as follows:”
Inoculation of Hela-mt-Keima cells into a 24-well plate at a density of 5×10^4, and then adding 1 mL of DMEM medium containing 10% (v/v) fetal bovine serum (FBS) to them to culture for 24 h; after 24 h, respectively adding 0.1% (v/v) DMSO (dimethyl sulfoxide), with DMSO (10 μM) as a solvent control group (DMSO), 10 μM of mitochondrial uncoupling agent (FCCP) (sigma) as a positive drug control group, and 10 μM JGX-1+10 μM FCCP as an experimental group, each group having 3 replicates; collecting cells on the third day by centrifugation at 1000×g for 3 min, resuspending in 0.5 mL of PBS buffer, sieving at 40 μm on the machine, collecting 5×10^4 cells by flow cytometry, recording the collection time, 405 nm/Qdot605-A, 561 nm/PE-Texas Red-A, and calculating MI=561/405+561.

Tau model mice = experiment: Morris water maze test of learning memory; type: in vivo; details: 10-month-old Tau model mice, oral 20 mg/kg for 3 consecutive months
pTAU (202) = experiment: Western blot of phosphorylated Tau in hSY5Y cells; type: cell-based; details: JGX-1 10 μmol/L, 24 h
Description: • a. […]

LC3B = experiment: Western blot of LC3B in hSY5Y cells; type: cell-based; details: JGX-1 10 μmol/L, 24 h
Description: • a. […]

COC(=O)[C@]1(C)CCCC2=C1CC[C@@H](C)[C@]2(C)CCC1=CC(=O)OC1 [JGX-1, Crassifolin A]
mitophagy (confocal live cell imaging) (Hela-mt-Keima cells [1]): enhance mitophagy
mitophagy (flow cytometry, MI=561/405+561) (Hela-mt-Keima cells [2]): enhance mitophagy
dementia symptoms in the model mice (Tau model mice): alleviated
learning memory of AD model mice (Tau model mice): improved effect
expression of phosphorylated Tau (pTAU (202)): inhibited
expression of autophagic LC3B (LC3B): enhanced
